Assay results reported in paper PMC10681007, “Targeted Degradation of XIAP is Sufficient and Specific to Induce Apoptosis in MYCN-overexpressing High-risk Neuroblastoma” (Cancer Research Communications, 2023).
Like-named read-outs stand apart in the source and are kept apart here. Starred links: 1 amine or outer side, 2 acyl side, 3 side chain; linkers in the order of their positions; H or OH if unused. Positions of bridges follow the written chain, without caps; N, C: chain ends. Non-standard residues stand in square brackets, D forms with d. Residues, ends and D or L forms follow the SMILES beside them. Chains are numbered I, II in the order given. Hexamethylenediamine = C(CCCN[*:2])CCN[*:1]; Dip = N[C@H](C(=O)O)C(c1ccccc1)c1ccccc1; Chg = N[C@H](C(=O)O)C1CCCCC1; NMeA = CN[C@@H](C)C(=O)O

Assays:
endogenous XIAP = target: T1, endogenous XIAP (Homo sapiens, UniProt P98170); assay: Degradation of endogenous luciferase-tagged XIAP (HiBiT/LgBiT), real-time luminescence; type: cell-based; details: for DC50: 8 hours, read-out: DC50, degradation curve at 8h
T1 construct: knock-in a bioluminescent tag at endogenous loci of XIAP; endogenous in cells; host or cells: BE(2)-C and KELLY cells, CRISPR/Cas9 HiBiT knock-in, stably transfected with LgBiT vector (Promega)
Protocol: B, Degradation profiles of endogenous XIAP in response to A4 or BV6 treatment of neuroblastoma cells, BE(2)-C (top) and KELLY (bottom). Cells were treated with increasing dose of A4 or BV6 and luminescence was measured continuously in real time for 2 hours. Luminescence values were normalized to DMSO vehicle control and degradation profiles were generated using GraphPad Prism. Values were expressed as mean ± SD of three independent experiments conducted in duplicates.
(A) Degradation profiles of endogenous XIAP in response to A4 treatment of neuroblastoma cells, BE(2)-C and KELLY. (B) Degradation profiles of endogenous XIAP in response to BV6 treatment of neuroblastoma cells, BE(2)-C and KELLY. […] Cells were treated with increasing dose of A4 or BV6 and luminescence was measured continuously in real-time for 2 hours (A4) or 8 hours (BV6), respectively. Luminescence values were normalized to DMSO vehicle control and degradation profiles were generated using GraphPad Prism. Values were expressed as mean ± SD of three independent experiments.

HS5 cells = assay: Apoptosis (cleaved PARP/caspase-3, Caspase-Glo 3/7); type: cell-based; details: 10 µmol/L
Protocol: The determination of caspase-3/7 levels as an indication for apoptosis activity was performed using a Caspase-Glo 3/7 assay kit from Promega according to manufacturer's instructions. Cells were seeded at 1 × 10^4 cells per well and treated with 10 µmol/L of IAP antagonists for various indicated timings, followed by bioluminescence measurement using luminescent plate reader, Tecan Infinite200 Pro. The activity of apoptosis was also measured by flow cytometry using the Dead Cell Apoptosis Kit with Annexin V FITC and PI (Thermo Fisher Scientific) according to manufacturer's instructions. Cells harvested from lentiviral infection were subjected to Annexin V (2.5 µL) and PI (40 ng/mL, 0.5 µL) staining, followed by flow cytometric analysis using BD LSRFortessa cell analyzer with excitation/emission spectra of 494 nm/518 nm for FITC and 535 nm/617 nm for PI.
FIGURE 2 Specific loss of XIAP expression, not c-IAP1, is required for mediating apoptosis in high-risk neuroblastoma cells. A, Summary of IAP antagonists’ efficacy in killing neuroblastoma cells. […] C, Graphical representation showing the fold change of caspase-3/7 activity relative to vehicle controls after treatment with 10 µmol/L of either A4, B3, or BV6 at indicated timings (data were expressed as mean ± SD of three independent experiments conducted in duplicates; *, P < 0.05). […]

XIAP (NanoLuc-XIAP) = target: T2, XIAP (NanoLuc-XIAP) (Homo sapiens, UniProt P98170); assay: NanoBRET XIAP target engagement assay; type: binding; details: NanoBRET tracer displacement, read-out: apparent intracellular affinity to XIAP (EC50)
T2 construct: host or cells: BE(2)-C and KELLY human neuroblastoma cells
Protocol: To better understand the mechanisms by which these compounds target XIAP in high-risk neuroblastoma, binding interactions between the antagonists and XIAP were first determined in BE(2)-C and KELLY cells using a NanoBRET quantitative target engagement assay. […] As the BRET signal was not completely abolished even at saturating A4 concentrations, NMR was conducted to further examine the binding interaction between A4 and XIAP (Supplementary Fig. S2A and S2B).
FIGURE 3 Binding and degradation of XIAP by A4 is necessary for targeting high-risk neuroblastoma cells. […] BRET signal was measured at 2 hours after treatment using a Tecan Infinite 200 Pro equipped with NanoBRET dual-filters (donor 460 nm and acceptor 618 nm) and determined via the formula (BRET ratio = values at 618 nm/values at 460 nm). […] Cells were treated with increasing dose of A4 or BV6 and luminescence was measured continuously in real time for 2 hours. Luminescence values were normalized to DMSO vehicle control and degradation profiles were generated using GraphPad Prism. Values were expressed as mean ± SD of three independent experiments conducted in duplicates. […] BRET signal was measured every 5 minutes for 6 hours after treatment using a Tecan equipped with NanoBRET dual-filters (donor 460 nm and acceptor 618 nm) and determined via the formula (BRET ratio = values at 618 nm/values at 460 nm). […]

T1 sequence (P98170 whole entry): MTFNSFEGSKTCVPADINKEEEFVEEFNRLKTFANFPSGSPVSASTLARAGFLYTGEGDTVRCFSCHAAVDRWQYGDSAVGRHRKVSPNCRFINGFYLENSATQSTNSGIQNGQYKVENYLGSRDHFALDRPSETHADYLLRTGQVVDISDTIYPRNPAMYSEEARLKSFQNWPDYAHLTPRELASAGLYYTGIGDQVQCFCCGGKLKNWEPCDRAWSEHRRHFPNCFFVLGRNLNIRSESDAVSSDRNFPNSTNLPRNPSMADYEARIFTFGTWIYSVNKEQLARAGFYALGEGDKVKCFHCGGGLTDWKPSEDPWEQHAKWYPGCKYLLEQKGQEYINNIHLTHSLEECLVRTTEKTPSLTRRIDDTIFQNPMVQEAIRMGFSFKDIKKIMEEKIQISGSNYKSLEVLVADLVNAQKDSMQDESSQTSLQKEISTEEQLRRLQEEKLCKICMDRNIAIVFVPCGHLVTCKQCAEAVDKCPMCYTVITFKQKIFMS
T2 sequence (P98170 whole entry): as above

For `CN[C@@H](C)C(=O)N[C@H](C(=O)N1CCC[C@H]1C(=O)N[C@H](C(=O)NCCCCCCNC(=O)[C@@H](NC(=O)[C@@H]1CCCN1C(=O)[C@@H](NC(=O)[C@H](C)NC)C1CCCCC1)C(c1ccccc1)c1ccccc1)C(c1ccccc1)c1ccccc1)C1CCCCC1` [BV6] (I: H-[NMeA][Chg]P[Dip] / II: H-[NMeA][Chg]P[Dip]; linker I:C-II:C via Hexamethylenediamine), the “degradation of XIAP” value (endogenous XIAP; 2 hours' exposure, BE(2)-C and KELLY) was “minimal degradation of XIAP”, the DC50 (endogenous XIAP; BE(2)-C) was 44.5 µM and the DC50 (endogenous XIAP; KELLY) was 32 µM. The apoptosis (HS5 cells) was “significant apoptosis”, the EC50 (XIAP (NanoLuc-XIAP); BE(2)-C cells) was 0.21 µM and the EC50 (XIAP (NanoLuc-XIAP); KELLY cells) was 0.3 µM.
